According to patent US4323576A, “Derivatives of pyrazole for use in therapy” (Morishita Pharmaceutical Co., Ltd., priority 1979, dated 1982):

Tests used:
hypertriglyceridemia = test: Pharmacological test against hypertriglyceridemia (fructose-induced); type: in vivo; conditions: serum, male SD rats, oral 3 times, 300 mg/kg as free carboxylic acid, after 48 hours, 10% fructose
Experimental: (i) Pharmacological test against hypertriglyceridemia:
The groups were made to be hypertriglyceridemia by giving an aqueous 10% by weight solution of fructose for 2 days, those of control group being given tap water. The administration of six kinds of the present derivatives and of nicotinic acid was as follows:
Each specimen of the present pyrazole derivatives and nicotinic acid was dissolved or dispersed into an aqueous 1% solution of carboxymethylcellulose (CMC) at a predetermined concentration, and the thus prepared solution or dispersion was orally administered 3 times in the volume of 0.5 ml/100 g body weight, that is, first dose just after the commencement of the present test, second dose after 24 hours of the first administration and third dose after 18 hours of the second administration. The dose of each compound was set so that each animal intaked 300 mg/kg of each compound as free carboxylic acid. The rats of control group were given the aqueous 1% solution of CMC only three times at the same intervals as the test groups. All the groups were fed with the same diet during the test period.
After 48 hours of the commencement of the test, blood sample was collected from each animal by amputation of the carotid artery, and serum was separated from the blood sample and frozen to be kept until lipid analysis.
Serum triglyceride was determined by Acetylacetone Method, and the reduction percentage of lipid was calculated by the following formula: [formula] wherein the amount is the average of the group.
Analysis for serum cholesterol:
The content of serum cholesterol was determined by an enzymatic method using cholesteroloxidase, and the reduction percentage of cholesterol was calculated by the following formula: [formula]

hypercholesterolemia = test: Pharmacological test against hypercholesterolemia (high cholesterol diet); type: in vivo; conditions: male SD rats, oral 200 mg/kg/day for 7 days; for Reduction Percentage, Cholesterol in beta-lipoprotein: heparin-calcium precipitation
Text: (ii) Pharmacological test against hypercholesterolemia:
Three groups of male SD rats each weighing ca. 150 g, each group consisting of five rats were used as the test animals and one group consisting of 10 rats was used as control. All animals were fed a high cholesterol diet consisted of 1% cholesterol, 0.2% sodium cholate, 5% olive oil and commercial diet up to total 100% for 7 days. The test compounds of the present invention and clofibrate, as a medicine for comparison, were respectively dissolved or dispersed in an aqueous 1% solution of CMC so that the volume of the solution or dispersion administered to each animal was 0.5 ml/100 g body weight/time, and the solution or dispersion was orally administered so that the amount of administration of each of the present pyrazole derivative or clofibrate was 200 mg/kg body weight/time. Actually, the administration was carried out once a day for 7 consecutive days. Water was taken ad lib. After 20 hours of fasting from the last administration, blood sample was taken by amputation of the carotid artery and the serum separated was frozen until the analysis of cholesterol shown as follows:
The content of serum cholesterol was determined by the above-mentioned method. The beta-lipoprotein-cholesterol was determined by "heparin-calcium precipitation method". The reduction percentages of cholesterol in serum and beta-lipoprotein were calculated in the same manner as above.

patients = conditions: administration to patients; cited from earlier work
serum lipid = conditions: Kupiecki et al. 1968; cited from earlier work
blood sugar-level = conditions: Land et al. 1975; cited from earlier work

| Compound | Reduction Percentage, Cholesterol (hypertriglyceridemia) | Reduction Percentage, Triglyceride (hypertriglyceridemia) | Reduction Percentage, Cholesterol in serum (hypercholesterolemia) | Reduction Percentage, Cholesterol in beta-lipoprotein (hypercholesterolemia) | other results |
| --- | --- | --- | --- | --- | --- |
| CCCCCCCCCc1cc(C(=O)O)n[nH]1 [5-n-nonylpyrazole-3-carboxylic acid] | 12.2% | 66.5% | 11.1% | 0.6% |  |
| CCCCCCCc1cc(C(=O)O)n[nH]1 [5-n-heptylpyrazole-3-carboxylic acid] | 12.5% | 40.6% |  |  |  |
| CCCCCCCc1cc(C(=O)OCC)n[nH]1 [Ethyl 5-n-heptylpyrazole-3-carboxylate, ethyl 5-n-heptylpyrazole-3-carboxylate] | 2.1% | 41.1% |  |  |  |
| CCCCCCCCCc1cc(C(=O)OCC)n[nH]1 [Ethyl 5-n-nonylpyrazole-3-carboxylate, ethyl 5-n-nonylpyrazole-3-carboxylate] | 29.5% | 63.1% |  |  |  |
| O=C(O)c1cccnc1 [nicotinic acid, reference compound] | 16.4% | 24.1% |  |  | side effects (patients): causing flushing or eruptions on the face and skin |
| CCOC(=O)C(C)(C)Oc1ccc(Cl)cc1 [Clofibrate, reference compound] |  |  | -3.5% | -2.0% | side effects (patients): causes the diseases in the bile duct system and is in danger of causing cancer |
| Cc1cc(C(=O)O)n[nH]1 [5-Methylpyrazol-3-carboxylic acid] |  |  |  |  | activity to reduce the level of serum lipid (serum lipid): activity to reduce the level of serum lipid; clinical effect in treatment of hyperlipemia (blood sugar-level): uncertainty of the derivative's clinical effect in treatment of hyperlipemia; side effect on blood sugar level (blood sugar-level): causing the reduction of blood sugar-level |
| CCCCCCCCCCCc1cc(C(=O)O)n[nH]1 [5-n-undecylpyrazole-3-carboxylic acid] | 40.0% | 69.1% | 22.8% | 20.1% |  |
| CCCCCCCCCCCc1cc(C(=O)OCC)n[nH]1 [Ethyl 5-n-undecylpyrazole-3-carboxylate, ethyl 5-n-undecylpyrazole-3-carboxylate] | 53.1% | 83.7% |  |  |  |
